Test [1] concerns the target T1, human adrenergic-α2A receptor (Homo sapiens, UniProt P08913).
T1 construct: expressed in transfected cells; host or cells: CHO cells, stably transfected; membrane preparation
T1 sequence (P08913 1-465): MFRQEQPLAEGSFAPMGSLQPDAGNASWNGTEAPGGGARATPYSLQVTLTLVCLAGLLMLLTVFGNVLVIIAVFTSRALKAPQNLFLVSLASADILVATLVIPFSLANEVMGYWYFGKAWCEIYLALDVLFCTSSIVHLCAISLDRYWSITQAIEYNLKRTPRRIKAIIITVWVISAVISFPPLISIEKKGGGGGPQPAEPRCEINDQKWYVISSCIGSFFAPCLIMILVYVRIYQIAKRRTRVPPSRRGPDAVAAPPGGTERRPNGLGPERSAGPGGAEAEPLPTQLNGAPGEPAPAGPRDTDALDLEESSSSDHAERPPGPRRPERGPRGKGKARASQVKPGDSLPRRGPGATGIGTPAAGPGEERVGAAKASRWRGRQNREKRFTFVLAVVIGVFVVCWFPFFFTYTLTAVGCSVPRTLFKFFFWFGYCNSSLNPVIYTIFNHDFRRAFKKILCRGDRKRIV
In words: Radioligand binding experiment for hα2A-adrenergic receptor ([3H]raulwolscine). The conditions noted are these: [3H]raulwolscine 1 nM, 60 minutes at 25° C.; for IC50: read-out: h-α2A pIC50 (converted). The procedure, abridged:
(§1)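 CHO membranes expressing human α2A or α2C receptors were incubated with 1 nM [^3H]raulwolscine for 60 min at 25° C in glycylglycine 25 mM, pH 8.0, then filtered. Nonspecific binding was defined with 1 μM oxymetazoline for α2A and 1 μM spiroxatrine for α2C. pIC50 came from sigmoidal competition curves.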

In test [2] the target is T2, human adrenergic-α2C receptor (Homo sapiens, UniProt P18825).
T2 construct: expressed in transfected cells; host or cells: CHO cells, stably transfected; membrane preparation
T2 sequence (P18825 1-462): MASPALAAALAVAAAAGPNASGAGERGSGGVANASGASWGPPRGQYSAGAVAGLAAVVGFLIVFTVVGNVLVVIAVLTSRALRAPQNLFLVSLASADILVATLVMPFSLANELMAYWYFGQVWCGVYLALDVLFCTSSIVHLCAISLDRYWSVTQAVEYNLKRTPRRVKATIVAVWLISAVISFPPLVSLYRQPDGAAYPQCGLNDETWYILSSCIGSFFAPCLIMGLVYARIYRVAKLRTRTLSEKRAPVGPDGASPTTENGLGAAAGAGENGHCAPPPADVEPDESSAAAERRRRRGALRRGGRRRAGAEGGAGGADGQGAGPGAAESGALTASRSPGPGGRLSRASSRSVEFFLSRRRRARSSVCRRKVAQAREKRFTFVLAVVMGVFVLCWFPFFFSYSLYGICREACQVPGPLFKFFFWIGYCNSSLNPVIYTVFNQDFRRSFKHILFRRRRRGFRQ
Kind of test: Radioligand binding experiment for hα2C-adrenoceptor ([3H]raulwolscine). The conditions noted are these: [3H]raulwolscine 1 nM, 60 minutes at 25° C.; for IC50: read-out: h-α2C pIC50 (converted). The procedure, abridged:
as §1

For test [3], the target named is T3, 5HT-transporter (Homo sapiens, UniProt P31645).
T3 construct: Human platelet membranes (Oceanix Biosciences Corporation, Hanover, Md., USA) were thawed; tissue Oceanix Biosciences Corporation, Hanover, Md., USA; host or cells: human platelet membranes
Kind of test: Binding experiment for the 5HT-transporter ([3H]paroxetine, human platelet membranes). The note with it: [3H]paroxetine 0.5 nM, 60 min at 25° C.; for IC50: read-out: h-5HTT pIC50 (converted). In outline:
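Competition binding of [3H]paroxetine to human platelet membranes in Tris-HCl 50 mM with 120 mM NaCl and 5 mM KCl; bound radioligand separated by GF/B filtration and counted.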

Data on 37 molecules can be found in patent US20080269251A1, “Substituted Pyrazinone Derivatives as Alpha2C-Adrenoreceptor Antagonists” (priority 2005, published 2008).

T3 sequence (P31645 whole entry): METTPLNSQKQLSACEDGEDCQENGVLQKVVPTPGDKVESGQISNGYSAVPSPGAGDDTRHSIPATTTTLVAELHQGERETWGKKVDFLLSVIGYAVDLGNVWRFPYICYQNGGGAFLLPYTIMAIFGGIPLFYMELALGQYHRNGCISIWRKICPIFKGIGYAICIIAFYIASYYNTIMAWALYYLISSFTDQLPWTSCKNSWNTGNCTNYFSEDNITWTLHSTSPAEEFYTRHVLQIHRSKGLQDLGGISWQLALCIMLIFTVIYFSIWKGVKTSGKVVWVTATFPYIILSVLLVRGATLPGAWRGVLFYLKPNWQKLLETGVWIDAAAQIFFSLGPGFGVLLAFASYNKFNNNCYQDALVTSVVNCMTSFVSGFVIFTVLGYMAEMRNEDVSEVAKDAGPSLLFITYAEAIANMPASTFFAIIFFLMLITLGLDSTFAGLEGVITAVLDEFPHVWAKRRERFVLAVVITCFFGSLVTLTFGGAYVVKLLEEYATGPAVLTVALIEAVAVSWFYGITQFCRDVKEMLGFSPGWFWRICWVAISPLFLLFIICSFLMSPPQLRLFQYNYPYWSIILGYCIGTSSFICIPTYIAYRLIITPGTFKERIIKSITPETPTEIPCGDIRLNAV

With `Cl.O=C(CCN1CCC(F)CC1)NCc1ccc(-n2ccnc(NC3CCN(Cc4ccc5ccccc5c4)CC3)c2=O)cc1F` [1-96], the “h-α2A pIC50” value in test [1] is 7.1. In addition, the “h-α2C pIC50” value in test [2] came out at 8.3. Further, the “h-5HTT pIC50” value in test [3] was found to be 8.0.

Regarding `NCc1ccc(Cn2ccnc(NC3CCN(Cc4ccc5ccccc5c4)CC3)c2=O)cc1` [1-02], the IC50 in test [1] was 50.1 nM; in test [2], 12.6 nM; in test [3] it was 63.1 nM.

As to `O=C1c2ccccc2C(=O)N1CC#CCn1ccnc(NC2CCN(Cc3ccc4ccccc4n3)CC2)c1=O` [9-18], the IC50 in test [1] was 2000 nM; in test [2] it was 63.1 nM; in test [3], 1000 nM.

For the molecule `O=C(NCc1ccc(-n2ccnc(NC3CCN(Cc4ccc5ccccc5c4)CC3)c2=O)cc1)NCc1cc(F)cc(C(F)(F)F)c1` [1-50], the IC50 in test [1] is 1260 nM; in test [2], 200 nM; in test [3], 63.1 nM.

In the case of `CN(CCCn1ccnc(NC2CCN(Cc3ccc4ccccc4c3)CC2)c1=O)C(=O)OC(C)(C)C` [1-35], the IC50 in test [1] was 316 nM; in test [2] it was 25.1 nM; in test [3], 39.8 nM.

For `Cc1ccc(CNC(=O)NCc2ccc(-n3ccnc(NC4CCN(Cc5ccc6ccccc6c5)CC4)c3=O)cc2)cc1F` [1-49], the IC50 in test [1] was 501 nM; in test [2], 39.8 nM; in test [3] it was 39.8 nM.

As for `O=c1c(NC2CCN(Cc3ccc4ccccc4c3)CC2)nccn1-c1ccc(CN2CCCCC2)cc1` [2-11], the IC50 was 200 nM in test [1], 10 nM in test [2] and 7.94 nM in test [3].

In the case of `Cc1cc(CNC(=O)c2ccc(-n3ccnc(NC4CCN(Cc5ccc6ccccc6c5)CC4)c3=O)cc2)no1` [1-86], the figures for the IC50 in test [1], in test [2] and in test [3] were 251 nM, 25.1 nM and 25.1 nM, respectively.

As to `O=C(Cn1ccnc(NC2CCN(Cc3ccc4ccccc4c3)CC2)c1=O)NCc1ccccc1` [1-68], the IC50 in test [1] is 200 nM; in test [2] it was 20 nM; in test [3], 158 nM.

Turning to `O=c1c(NC2CCN(Cc3ccc4ccccc4c3)CC2)nccn1CCCNCCOc1ccccc1` [1-77], the IC50 in test [1] was 398 nM; in test [2], 25.1 nM; in test [3] it was 63.1 nM.

Turning to `O=C(CNCCCn1ccnc(NC2CCN(Cc3ccc4ccccc4c3)CC2)c1=O)c1coc2ccccc12` [1-103], the IC50 in test [1] was 631 nM; in test [2], 31.6 nM; in test [3] it was 158 nM.

Take `O=C(Cn1ccnc(NC2CCN(Cc3ccc4ccccc4c3)CC2)c1=O)NCc1ccc(F)cc1` [1-66]: the IC50 in test [1] is 316 nM; in test [2], 12.6 nM; in test [3], 63.1 nM.

In the case of `CC(=O)N1CCc2ccc(-n3ccnc(NC4CCN(Cc5ccc6ccccc6c5)CC4)c3=O)cc2C1` [6-13], the IC50 in test [1] was 126 nM; in test [2], 10 nM; in test [3], 25.1 nM.

On to `O=c1c(NC2CCN(Cc3ccc4ccccc4c3)CC2)nccn1-c1csc2ccccc12` [6-04], for which the IC50 in test [1] is 251 nM; in test [2] it was 50.1 nM; in test [3], 31.6 nM.

As to `O=C1c2ccccc2C(=O)N1CCCn1ccnc(NC2CCN(Cc3ccc4ncccc4c3)CC2)c1=O` [9-07], the IC50 in test [1] is 1580 nM; in test [2], 63.1 nM; in test [3], 50.1 nM.

On to `O=c1[nH]ccnc1NC1CCN(Cc2ccc3ncccc3c2)CC1` [9-13], for which the IC50 is 3160 nM in test [1], 398 nM in test [2] and more than 10000 nM in test [3].

Take `O=c1c(NC2CCN(Cc3ccc4ccccc4c3)CC2)nccn1Cc1cccc([N+](=O)[O-])c1` [5-09]: the IC50 is 200 nM in test [1], 79.4 nM in test [2] and 50.1 nM in test [3].

As to `O=C(Cn1ccnc(NC2CCN(Cc3ccc4ccccc4c3)CC2)c1=O)Nc1ccccc1` [1-64], the IC50 in test [1] was 158 nM; in test [2], 31.6 nM; in test [3], 126 nM.

With `CCNC(=O)Cc1ccc(-n2ccnc(NC3CCN(Cc4ccc5ccccc5c4)CC3)c2=O)cc1` [1-10], the IC50 in test [1] was 398 nM; in test [2], 31.6 nM; in test [3], 15.8 nM.

As for `CN(C)CCCn1ccnc(NC2CCN(Cc3ccc4ccccc4c3)CC2)c1=O` [1-12], the IC50 was 200 nM in test [1], 31.6 nM in test [2] and 251 nM in test [3].

Turning to `O=c1[nH]ccnc1NC1CCN(Cc2ccc3ccccc3c2)CC1` [5-01], the IC50 is 501 nM in test [1], 126 nM in test [2] and 1260 nM in test [3].

Consider `CC(=O)NCCN(C)Cc1ccc(-n2ccnc(NC3CCN(Cc4ccc5ccccc5c4)CC3)c2=O)cc1` [1-60], for which the IC50 was 200 nM in test [1], 25.1 nM in test [2] and 10 nM in test [3].

In the case of `CN(CC(=O)N(C)C)Cc1ccc(-n2ccnc(NC3CCN(Cc4ccc5ccccc5c4)CC3)c2=O)cc1` [1-57], the IC50 in test [1] was 251 nM; in test [2] it was 15.8 nM; in test [3] it was 50.1 nM.

With `O=C(CCn1ccnc(NC2CCN(Cc3ccc4ncccc4c3)CC2)c1=O)c1ccccc1` [9-05], the IC50 was 1580 nM in test [1], 794 nM in test [2] and 25.1 nM in test [3].

As for `O=c1c(NC2CCN(Cc3ccc4ccccc4c3)CC2)nccn1-c1ccccn1` [6-16], the IC50 was 63.1 nM in test [1], 25.1 nM in test [2] and 158 nM in test [3].

Turning to `O=c1c(NC2CCN(Cc3ccc4ccccc4c3)CC2)nccn1-c1ccc(CNCCF)cc1` [1-07], the IC50 in test [1] was 126 nM; in test [2], 6.31 nM; in test [3], 7.94 nM.

For the molecule `O=C(CC1CCCC1)NCc1ccc(-n2ccnc(NC3CCN(Cc4ccc5ccccc5c4)CC3)c2=O)cc1` [1-28], the “h-α2A pIC50” value in test [1] is 6.3. The “h-α2C pIC50” value in test [2] turned out to be 7.5. For the same molecule, the “h-5HTT pIC50” value in test [3] turned out to be 8.1.

For the molecule `CC(=O)NCCNCc1ccc(-n2ccnc(NC3CCN(Cc4ccc5ccccc5c4)CC3)c2=O)cc1` [1-61], the results for the IC50 in test [1], in test [2] and in test [3] were 200 nM, 12.6 nM and 10 nM, respectively.

For the molecule `CC(C)(C)OC(=O)NCCCn1ccnc(NC2CCN(Cc3ccc4ccccc4c3)CC2)c1=O` [1-32], the IC50 was 200 nM in test [1], 12.6 nM in test [2] and 31.6 nM in test [3].

For the molecule `O=c1c(NC2CCN(Cc3ccc4ccccc4c3)CC2)nccn1CCCO` [3-02], the IC50 in test [1] is 631 nM; in test [2], 100 nM; in test [3], 200 nM.

On to `O=c1[nH]c(-c2cccc(CNCC3CCCO3)c2)c(Cl)nc1NC1CCN(Cc2ccc3ccccc3c2)CC1` (stereo not drawn) [7-04], for which the IC50 in test [1] is 631 nM; in test [2], 126 nM; in test [3] it was 398 nM.

For `O=c1c(NC2CCN(Cc3ccc4ccccc4c3)CC2)nccn1-c1ccc(CNCCN2CCOCC2)cc1` [1-93], the IC50 in test [1] was 316 nM; in test [2], 20 nM; in test [3], 15.8 nM.

As for `CCOC(CN(Cc1ccccc1)C(=O)Cn1ccnc(NC2CCN(Cc3ccc4ccccc4c3)CC2)c1=O)OCC` [1-20], the IC50 was 398 nM in test [1], 25.1 nM in test [2] and 100 nM in test [3].

`Cc1ccc(CNCc2ccc(-n3ccnc(NC4CCN(Cc5ccc6ccccc6c5)CC4)c3=O)cc2F)o1` [1-84]: the IC50 was 200 nM in test [1], 10 nM in test [2] and 3.16 nM in test [3].

For `COc1ccc(Cn2c(-c3ccc(CO)cc3)c(Cl)nc(NC3CCN(Cc4ccc5ccccc5c4)CC3)c2=O)cc1` [8-03], the IC50 in test [1] was 200 nM; in test [2], 251 nM; in test [3] it was 126 nM.

`O=c1c(NC2CCN(Cc3ccc4ccccc4c3)CC2)nccn1CCCNCc1ccccc1` [1-67]: the IC50 in test [1] is 631 nM; in test [2], 25.1 nM; in test [3], 158 nM.

Take `COC(=O)CN(C)Cc1ccc(-n2ccnc(NC3CCN(Cc4ccc5ccccc5c4)CC3)c2=O)cc1` [1-36]: the IC50 in test [1] is 501 nM; in test [2], 50.1 nM; in test [3], 158 nM.
